What was measured:
[1] = biological target: T1, 5-hydroxytryptamine receptor 4 (Homo sapiens, UniProt Q13639); assay: (§1) Tested for 5-hydroxytryptamine 4 receptor antagonist activity; type: functional
[2] = biological target: T1, 5-hydroxytryptamine receptor 4; assay: as §1; type: functional; remark: listed apart in the source
[3] = species: Rattus norvegicus; assay: Tested for affinity towards 5-HT receptor in relaxation of carbachol contracted rat oesophaga muscularis; type: functional
[4] = biological target: 5-hydroxytryptamine receptor 4 (Cavia porcellus) (UniProt O70528); assay: Tested for affinity towards 5-hydroxytryptamine 4 receptor in guinea pig distal colon preparation; type: tissue-based
Sequence of 5-hydroxytryptamine receptor 4 (Cavia porcellus) (O70528 whole entry): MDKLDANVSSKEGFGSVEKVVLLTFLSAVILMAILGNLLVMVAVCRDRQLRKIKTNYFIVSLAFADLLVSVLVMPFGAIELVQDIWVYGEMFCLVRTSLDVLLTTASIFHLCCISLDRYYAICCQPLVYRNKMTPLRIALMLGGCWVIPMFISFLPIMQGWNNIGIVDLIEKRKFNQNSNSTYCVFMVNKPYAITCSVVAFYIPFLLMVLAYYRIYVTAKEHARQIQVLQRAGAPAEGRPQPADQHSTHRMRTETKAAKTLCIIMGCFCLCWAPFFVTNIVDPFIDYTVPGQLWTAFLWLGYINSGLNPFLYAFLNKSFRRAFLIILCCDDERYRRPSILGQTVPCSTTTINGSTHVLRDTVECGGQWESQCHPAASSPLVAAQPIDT

[5] = biological target: Serotonin 3 (5-HT3) receptor; assay: (§2) Compound was tested for 5-hydroxytryptamine 3 receptor binding affinity; type: protein-complex assay
[6] = biological target: 5-hydroxytryptamine receptor 4 (Cavia porcellus, UniProt O70528); assay: Tested for affinity against 5-hydroxytryptamine 4 receptor in the myenteric plexus of the guinea pig ileum.; type: tissue-based
Sequence of 5-hydroxytryptamine receptor 4 (Cavia porcellus, UniProt O70528) (O70528 whole entry): as above

[7] = biological target: 5-hydroxytryptamine receptor 4 (Mus musculus) (UniProt P97288); assay: Tested for 5-hydroxytryptamine 4 binding affinity against renzapride
Sequence of 5-hydroxytryptamine receptor 4 (Mus musculus) (P97288 whole entry, looked up): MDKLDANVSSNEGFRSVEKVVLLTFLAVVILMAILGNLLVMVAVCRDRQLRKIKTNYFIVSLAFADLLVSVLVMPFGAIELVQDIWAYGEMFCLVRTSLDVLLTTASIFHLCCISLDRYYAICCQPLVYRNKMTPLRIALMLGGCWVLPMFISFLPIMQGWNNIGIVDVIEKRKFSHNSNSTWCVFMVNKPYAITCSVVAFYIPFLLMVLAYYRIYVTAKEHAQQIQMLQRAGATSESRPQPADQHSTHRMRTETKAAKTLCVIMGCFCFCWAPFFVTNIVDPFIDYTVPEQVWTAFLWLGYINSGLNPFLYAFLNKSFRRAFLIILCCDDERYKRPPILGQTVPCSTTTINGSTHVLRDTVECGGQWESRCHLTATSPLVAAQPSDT

[8] = biological target: 5-hydroxytryptamine receptor 4 (Mus musculus) (UniProt P97288); assay: Tested for 5-hydroxytryptamine 4 binding affinity against zacopride
[9] = biological target: 5-hydroxytryptamine receptor 4 (Mus musculus) (UniProt P97288); assay: Tested for 5-hydroxytryptamine 4 binding affinity against cisapride
[10] = biological target: 5-hydroxytryptamine receptor 4 (Rattus norvegicus) (UniProt Q62758); assay: Tested for affinity towards 5-hydroxytryptamine 4 receptor in relaxation of rat oesophagus
Sequence of 5-hydroxytryptamine receptor 4 (Rattus norvegicus) (Q62758 whole entry): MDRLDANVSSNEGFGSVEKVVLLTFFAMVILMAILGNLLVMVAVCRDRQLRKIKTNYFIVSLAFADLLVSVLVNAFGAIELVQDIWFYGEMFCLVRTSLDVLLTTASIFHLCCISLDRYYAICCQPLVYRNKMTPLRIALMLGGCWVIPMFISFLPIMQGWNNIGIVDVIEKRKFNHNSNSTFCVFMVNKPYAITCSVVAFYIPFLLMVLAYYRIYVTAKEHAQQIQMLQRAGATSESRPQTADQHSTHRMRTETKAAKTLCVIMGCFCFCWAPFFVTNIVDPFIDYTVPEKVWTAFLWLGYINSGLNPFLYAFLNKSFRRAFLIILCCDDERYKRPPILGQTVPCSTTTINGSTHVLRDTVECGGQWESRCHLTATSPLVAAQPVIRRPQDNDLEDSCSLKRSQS

[11] = biological target: 5-hydroxytryptamine receptor 4 (Cavia porcellus) (UniProt O70528); assay: Tested for affinity towards 5-hydroxytryptamine 4 receptor in electrically stimulated longitudinal muscle preparation of guinea pig ileum; type: tissue-based
[12] = biological target: Serotonin 3 (5-HT3) receptor; assay: Tested for 5-hydroxytryptamine 3 receptor antagonist activity; type: functional
[13] = biological target: T1, 5-hydroxytryptamine receptor 4; assay: Tested for affinity towards 5-hydroxytryptamine 4 receptor.
[14] = biological target: T1, 5-hydroxytryptamine receptor 4; assay: as §1; type: functional; remark: listed apart in the source
[15] = species: Cavia porcellus; assay: Tested for inhibitory activity against 5-HT induced contractions of guinea pig ileum; type: functional
[16] = biological target: T2, 5-hydroxytryptamine receptor 3A (Homo sapiens, UniProt P46098); assay: as §2
T2 sequence (P46098 whole entry): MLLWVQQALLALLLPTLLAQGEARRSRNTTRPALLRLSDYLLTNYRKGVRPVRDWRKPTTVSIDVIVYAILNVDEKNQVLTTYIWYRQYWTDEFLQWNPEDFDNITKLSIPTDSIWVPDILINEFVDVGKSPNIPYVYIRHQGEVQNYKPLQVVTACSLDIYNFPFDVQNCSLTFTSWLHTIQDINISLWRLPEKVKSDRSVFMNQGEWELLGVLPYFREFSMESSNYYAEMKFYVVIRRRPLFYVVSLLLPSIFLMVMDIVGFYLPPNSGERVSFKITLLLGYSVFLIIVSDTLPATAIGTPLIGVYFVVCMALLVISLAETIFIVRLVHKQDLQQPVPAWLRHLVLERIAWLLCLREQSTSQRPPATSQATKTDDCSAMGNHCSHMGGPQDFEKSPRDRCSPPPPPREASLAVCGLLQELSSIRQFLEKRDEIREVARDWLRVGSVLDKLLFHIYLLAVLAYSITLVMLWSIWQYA

[17] = biological target: 5-hydroxytryptamine receptor 4 (Rattus norvegicus, UniProt Q62758); assay: Efficient 5-hydroxytryptamine 4 agonist in the rat tunica muscularis mucosae; type: functional, tissue-based, Muscularis mucosa
Sequence of 5-hydroxytryptamine receptor 4 (Rattus norvegicus, UniProt Q62758) (Q62758 whole entry): as the sequence (Q62758 whole entry) above

[18] = Tested for potency against electrically stimulated myenteric plexus; type: functional
[19] = biological target: T2, 5-hydroxytryptamine receptor 3A; assay: Tested for 5-hydroxytryptamine 3 receptor agonist activity; type: functional

T1 sequence (Q13639 whole entry): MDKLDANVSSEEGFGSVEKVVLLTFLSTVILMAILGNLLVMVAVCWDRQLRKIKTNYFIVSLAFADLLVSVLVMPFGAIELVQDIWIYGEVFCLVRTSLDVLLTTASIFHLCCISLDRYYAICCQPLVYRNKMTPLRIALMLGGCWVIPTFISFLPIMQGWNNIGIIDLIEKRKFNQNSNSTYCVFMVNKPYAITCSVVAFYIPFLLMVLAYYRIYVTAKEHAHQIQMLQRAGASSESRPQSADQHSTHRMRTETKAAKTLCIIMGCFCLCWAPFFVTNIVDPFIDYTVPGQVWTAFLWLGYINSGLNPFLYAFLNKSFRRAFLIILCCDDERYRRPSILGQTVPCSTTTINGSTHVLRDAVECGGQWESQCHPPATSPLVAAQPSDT

Work on `CC(C)n1c(=O)n(C(=O)NCCN2CCN(C)CC2)c2ccccc21` yielded an Intrinsic activity [1] of 0.94 and a Ki [2] of 0.0919 µM.
Work on `COc1cc(COc2cc(N)c(Cl)cc2C(=O)CCC2CCN(CCNS(C)(=O)=O)CC2)cc(OC)c1` yielded an Activity [3] of 9.2 pKi.
With `CCCCN1CCC(CNC(=O)c2c3n(c4ccccc24)CCCO3)CC1` the Activity [4] was 9.2 pIC50.
Work on `COc1cc(N)c(Cl)cc1C(=O)NC1CCN(CCCOc2ccc(F)cc2)CC1OC` (centres undefined) [CISAPRIDE] yielded a Ki [5] of 0.152 µM.
Compound `CCOc1cc(N)c(Cl)cc1C(=O)NCC1CN(Cc2ccc(F)cc2)CCO1` (centres undefined) [MOSAPRIDE] has a Ki [6] of 0.084 µM.
With `COc1cc(N)c(Cl)cc1C(=O)NC1CC2CCC(C1)N2C` (centres undefined) the EC50 [7] was 0.126 µM, the EC50 [8] was 1.12 µM and the EC50 [9] was 0.0724 µM.
Work on `CCCCN1CCC(CCC(=O)c2cc(Cl)c(N)cc2OC)CC1` yielded an Activity [10] of 8.4 pEC50.
`COc1cc(COc2cc(N)c(Cl)cc2C(=O)CCCCN2CCCCC2)cc(OC)c1` showed an Activity [3] of 8.5 pKi.
`CCCCCNC(=N)N/N=C/c1c[nH]c2ccc(OC)cc12` showed an Activity [11] of 6.9 pD2.
Compound `CNC1(CNC(=O)c2cc(Cl)c(N)cc2OC)CCCC1` has a Ki [12] of 0.009 µM.
Compound `COc1cc(N)c(Cl)cc1C(=O)CCC1CCN(CCNS(C)(=O)=O)CC1` has an Activity [10] of 8.6 pEC50.
For `COc1cc(N)c(Cl)cc1C(=O)NC1CCN2C(C)CCCC2C1` (centres undefined) [BRL-20627], the EC50 [7] was 0.126 µM, the EC50 [8] was 1.12 µM and the EC50 [9] was 0.0724 µM.
Work on `CCCCN1CCC(COC(=O)c2c3n(c4ccccc24)CCCO3)CC1` yielded an Activity [4] of 10.6 pIC50.
`CCCCN1CCC(CNC(=O)c2cc(Cl)c(N)c3c2OCCO3)CC1` gave an Activity [13] of 9 pKa.
For `CC(C)N1CCN(CCNC(=O)n2c(=O)n(C3CC3)c3ccccc32)CC1`, the Ki [14] was 0.0166 µM and the Ki [2] was 0.0067 µM.
Compound `N=C(N)N/N=C/c1c[nH]c2ccc(O)cc12` has an Activity [11] of 8.8 pD2.
Work on `O=C(NCC1CCN2CCCCC2C1)c1c2n(c3ccccc13)CCCO2` (centres undefined) yielded an Activity [4] of 9.5 pIC50.
With `CCCCCN(C)C(=N)N/N=C/c1c[nH]c2c(C)cc(OC)cc12` the Activity [15] was 8.4 pA2.
Work on `COc1cc(N)c(Cl)cc1C(=O)NC[C@@H]1CCN2CCC[C@@H]12` yielded a Ki [16] of 0.152 µM and an EC50 [17] of 0.0237 µM.
`Nc1cc2c(cc1Cl)C(=O)NC1CCN(CCOCCO2)CC1` showed an EC50 [18] of 0.069 µM and a Ki [19] of 0.0532 µM.
In the case of `CCCCCNC(=N)N/N=C/c1c[nH]c2ccc(O)cc12`, the Activity [11] is reported as 9.3 pD2.
